ChEMBL document CHEMBL4507311, “Data for DCP probe A-1155463” (2021)

Experiments:
[1] = test system: Tyrosine-protein kinase ABL1 (Homo sapiens), P00519 [T315I]; conditions: Compound concentration 1000.0 nM
[2] = target: Atypical kinase COQ8A, mitochondrial (Homo sapiens) (UniProt Q8NI60); conditions: Compound concentration 1000.0 nM
[3] = test system: ALK tyrosine kinase receptor (Homo sapiens), Q9UM73 [L1196M]; conditions: Compound concentration 1000.0 nM
[4] = target: Ankyrin repeat and protein kinase domain-containing protein 1 (Homo sapiens) (UniProt Q8NFD2); conditions: Compound concentration 1000.0 nM
[5] = target: BMP-2-inducible protein kinase (Homo sapiens) (UniProt Q9NSY1); conditions: Compound concentration 1000.0 nM
[6] = target: Calcium/calmodulin-dependent protein kinase type II subunit delta (Homo sapiens) (UniProt Q13557); conditions: Compound concentration 1000.0 nM
[7] = target: Citron Rho-interacting kinase (Homo sapiens) (UniProt O14578); conditions: Compound concentration 1000.0 nM
Sequence of Citron Rho-interacting kinase (Homo sapiens) (O14578 whole entry): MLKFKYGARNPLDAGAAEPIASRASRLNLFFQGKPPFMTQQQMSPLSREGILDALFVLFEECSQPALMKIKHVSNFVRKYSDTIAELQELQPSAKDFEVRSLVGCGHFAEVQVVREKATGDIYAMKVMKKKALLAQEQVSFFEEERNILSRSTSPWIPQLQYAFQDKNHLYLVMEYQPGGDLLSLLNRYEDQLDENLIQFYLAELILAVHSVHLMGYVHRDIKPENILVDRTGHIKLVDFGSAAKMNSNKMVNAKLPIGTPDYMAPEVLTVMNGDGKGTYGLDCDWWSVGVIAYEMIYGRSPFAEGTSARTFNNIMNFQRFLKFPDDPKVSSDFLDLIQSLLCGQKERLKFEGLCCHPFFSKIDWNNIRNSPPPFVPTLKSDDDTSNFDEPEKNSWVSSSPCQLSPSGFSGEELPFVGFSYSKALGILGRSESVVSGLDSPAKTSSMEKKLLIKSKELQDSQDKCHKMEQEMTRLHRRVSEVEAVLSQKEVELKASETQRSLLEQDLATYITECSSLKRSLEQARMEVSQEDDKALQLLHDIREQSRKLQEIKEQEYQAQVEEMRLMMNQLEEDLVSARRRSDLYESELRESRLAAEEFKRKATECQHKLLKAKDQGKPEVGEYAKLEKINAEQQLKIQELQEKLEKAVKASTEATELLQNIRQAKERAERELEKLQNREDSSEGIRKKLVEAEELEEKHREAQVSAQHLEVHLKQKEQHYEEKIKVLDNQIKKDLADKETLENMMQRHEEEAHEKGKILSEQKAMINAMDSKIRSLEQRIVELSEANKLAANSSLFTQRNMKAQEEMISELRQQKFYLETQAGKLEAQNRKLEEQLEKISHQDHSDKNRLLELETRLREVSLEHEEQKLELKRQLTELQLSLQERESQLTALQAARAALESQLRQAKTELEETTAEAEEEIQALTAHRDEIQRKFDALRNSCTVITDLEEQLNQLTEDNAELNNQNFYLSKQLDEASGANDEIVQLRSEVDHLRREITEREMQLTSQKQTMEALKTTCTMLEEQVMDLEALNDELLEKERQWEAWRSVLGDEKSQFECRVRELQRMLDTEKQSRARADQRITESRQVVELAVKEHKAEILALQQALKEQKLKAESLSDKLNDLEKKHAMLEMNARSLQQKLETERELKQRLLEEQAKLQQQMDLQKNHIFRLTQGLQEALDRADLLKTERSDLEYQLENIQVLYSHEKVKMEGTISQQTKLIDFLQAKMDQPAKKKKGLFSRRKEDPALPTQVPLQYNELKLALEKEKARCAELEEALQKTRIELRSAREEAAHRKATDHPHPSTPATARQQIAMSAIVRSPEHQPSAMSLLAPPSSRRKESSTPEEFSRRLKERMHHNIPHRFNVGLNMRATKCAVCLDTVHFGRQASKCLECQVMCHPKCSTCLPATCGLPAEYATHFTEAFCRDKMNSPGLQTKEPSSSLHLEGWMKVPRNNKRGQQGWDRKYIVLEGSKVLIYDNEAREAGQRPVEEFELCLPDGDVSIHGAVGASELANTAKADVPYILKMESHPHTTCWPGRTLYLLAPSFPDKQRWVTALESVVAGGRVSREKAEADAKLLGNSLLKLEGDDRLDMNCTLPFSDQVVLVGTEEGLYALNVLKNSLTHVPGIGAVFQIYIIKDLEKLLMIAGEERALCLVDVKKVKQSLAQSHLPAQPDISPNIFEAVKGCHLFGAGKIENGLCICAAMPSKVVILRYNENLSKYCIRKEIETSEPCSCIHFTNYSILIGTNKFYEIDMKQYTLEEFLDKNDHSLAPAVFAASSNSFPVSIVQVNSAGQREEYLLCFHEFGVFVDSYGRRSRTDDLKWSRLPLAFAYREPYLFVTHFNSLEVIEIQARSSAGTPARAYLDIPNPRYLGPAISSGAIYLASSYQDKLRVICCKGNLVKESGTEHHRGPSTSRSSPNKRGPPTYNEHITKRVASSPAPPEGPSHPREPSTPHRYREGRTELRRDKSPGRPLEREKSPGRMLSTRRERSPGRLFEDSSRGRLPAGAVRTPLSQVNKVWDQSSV

[8] = target: Dual specificity protein kinase CLK3 (Homo sapiens) (UniProt P49761); conditions: Compound concentration 1000.0 nM
Sequence of Dual specificity protein kinase CLK3 (Homo sapiens) (P49761 whole entry, looked up): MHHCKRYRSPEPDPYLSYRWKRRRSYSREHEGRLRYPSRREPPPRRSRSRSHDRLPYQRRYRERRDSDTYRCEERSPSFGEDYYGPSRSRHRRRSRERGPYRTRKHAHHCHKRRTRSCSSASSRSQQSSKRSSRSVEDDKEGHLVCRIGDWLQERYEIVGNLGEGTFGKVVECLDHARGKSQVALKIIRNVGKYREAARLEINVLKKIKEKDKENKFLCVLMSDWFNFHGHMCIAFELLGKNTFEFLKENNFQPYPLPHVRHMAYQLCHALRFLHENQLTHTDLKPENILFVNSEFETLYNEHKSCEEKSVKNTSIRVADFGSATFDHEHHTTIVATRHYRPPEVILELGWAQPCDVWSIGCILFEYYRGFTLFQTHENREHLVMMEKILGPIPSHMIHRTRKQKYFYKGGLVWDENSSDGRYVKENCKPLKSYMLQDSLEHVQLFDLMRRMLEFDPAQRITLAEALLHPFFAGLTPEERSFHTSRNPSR

[9] = target: Casein kinase II subunit alpha' (Homo sapiens) (UniProt P19784); conditions: Compound concentration 1000.0 nM
[10] = target: Death-associated protein kinase 3 (Homo sapiens) (UniProt O43293); conditions: Compound concentration 1000.0 nM
[11] = target: Receptor tyrosine-protein kinase erbB-4 (Homo sapiens) (UniProt Q15303); conditions: Compound concentration 1000.0 nM
[12] = test system: Receptor-type tyrosine-protein kinase FLT3 (Homo sapiens), P36888 [D835H]; conditions: Compound concentration 1000.0 nM
[13] = target: Cyclin-G-associated kinase (Homo sapiens) (UniProt O14976); conditions: Compound concentration 1000.0 nM
[14] = test system: eIF-2-alpha kinase GCN2 (Homo sapiens), Q9P2K8 [S808G]; conditions: Compound concentration 1000.0 nM
[15] = target: Mitogen-activated protein kinase kinase kinase 9 (Homo sapiens) (UniProt P80192); conditions: Compound concentration 1000.0 nM
[16] = target: Myosin light chain kinase, smooth muscle (Homo sapiens) (UniProt Q15746); conditions: Compound concentration 1000.0 nM
[17] = target: Myosin light chain kinase 2, skeletal/cardiac muscle (Homo sapiens) (UniProt Q9H1R3); conditions: Compound concentration 1000.0 nM
[18] = target: Serine/threonine-protein kinase Nek10 (Homo sapiens) (UniProt Q6ZWH5); conditions: Compound concentration 1000.0 nM
[19] = target: Cyclin-dependent kinase 2 homolog (Plasmodium falciparum (isolate 3D7)) (UniProt P61075); conditions: Compound concentration 1000.0 nM
[20] = target: Phosphatidylinositol 4,5-bisphosphate 3-kinase catalytic subunit alpha isoform (Homo sapiens) (UniProt P42336); conditions: Compound concentration 1000.0 nM
[21] = test system: Phosphatidylinositol 4,5-bisphosphate 3-kinase catalytic subunit alpha isoform (Homo sapiens), P42336 [E545A]; conditions: Compound concentration 1000.0 nM
[22] = test system: Phosphatidylinositol 4,5-bisphosphate 3-kinase catalytic subunit alpha isoform (Homo sapiens), P42336 [E545K]; conditions: Compound concentration 1000.0 nM
[23] = target: Phosphatidylinositol 4-kinase beta (Homo sapiens) (UniProt Q9UBF8); conditions: Compound concentration 1000.0 nM
[24] = target: Serine/threonine-protein kinase pim-1 (Homo sapiens) (UniProt P11309); conditions: Compound concentration 1000.0 nM
[25] = test system: Proto-oncogene tyrosine-protein kinase receptor Ret (Homo sapiens), P07949 [V804L]; conditions: Compound concentration 1000.0 nM
[26] = test system: Proto-oncogene tyrosine-protein kinase receptor Ret (Homo sapiens), P07949 [V804M]; conditions: Compound concentration 1000.0 nM
[27] = target: Ribosomal protein S6 kinase alpha-1 (Homo sapiens) (UniProt Q15418); conditions: Compound concentration 1000.0 nM
[28] = target: Ribosomal protein S6 kinase alpha-2 (Homo sapiens) (UniProt Q15349); conditions: Compound concentration 1000.0 nM
[29] = target: Serine/threonine-protein kinase SIK1 (Homo sapiens) (UniProt P57059); conditions: Compound concentration 1000.0 nM
Sequence of Serine/threonine-protein kinase SIK1 (Homo sapiens) (P57059 whole entry): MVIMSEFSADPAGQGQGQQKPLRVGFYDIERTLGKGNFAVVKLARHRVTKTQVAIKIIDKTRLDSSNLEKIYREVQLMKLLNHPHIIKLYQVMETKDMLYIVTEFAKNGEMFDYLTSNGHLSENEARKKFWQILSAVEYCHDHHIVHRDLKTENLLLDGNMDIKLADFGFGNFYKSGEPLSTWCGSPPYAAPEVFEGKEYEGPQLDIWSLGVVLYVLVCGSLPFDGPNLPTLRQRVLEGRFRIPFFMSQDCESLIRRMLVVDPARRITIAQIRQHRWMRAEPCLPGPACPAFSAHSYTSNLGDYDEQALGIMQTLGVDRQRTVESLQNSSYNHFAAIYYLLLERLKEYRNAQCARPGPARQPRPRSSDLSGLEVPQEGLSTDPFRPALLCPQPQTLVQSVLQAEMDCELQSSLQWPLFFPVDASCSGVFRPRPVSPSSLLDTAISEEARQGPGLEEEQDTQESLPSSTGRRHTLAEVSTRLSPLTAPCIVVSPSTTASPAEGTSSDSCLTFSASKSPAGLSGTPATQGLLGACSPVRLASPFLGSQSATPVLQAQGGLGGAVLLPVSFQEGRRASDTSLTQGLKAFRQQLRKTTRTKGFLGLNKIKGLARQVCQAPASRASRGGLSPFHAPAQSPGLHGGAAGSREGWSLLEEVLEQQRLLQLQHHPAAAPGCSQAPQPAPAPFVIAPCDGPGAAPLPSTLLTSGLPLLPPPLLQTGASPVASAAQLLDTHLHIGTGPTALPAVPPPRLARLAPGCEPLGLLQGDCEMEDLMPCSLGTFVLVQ

[30] = target: BDNF/NT-3 growth factors receptor (Homo sapiens) (UniProt Q16620); conditions: Compound concentration 1000.0 nM
[31] = target: NT-3 growth factor receptor (Homo sapiens) (UniProt Q16288); conditions: Compound concentration 1000.0 nM
[32] = target: Mitogen-activated protein kinase kinase kinase 19 (Homo sapiens) (UniProt Q56UN5); conditions: Compound concentration 1000.0 nM
Sequence of Mitogen-activated protein kinase kinase kinase 19 (Homo sapiens) (Q56UN5 whole entry): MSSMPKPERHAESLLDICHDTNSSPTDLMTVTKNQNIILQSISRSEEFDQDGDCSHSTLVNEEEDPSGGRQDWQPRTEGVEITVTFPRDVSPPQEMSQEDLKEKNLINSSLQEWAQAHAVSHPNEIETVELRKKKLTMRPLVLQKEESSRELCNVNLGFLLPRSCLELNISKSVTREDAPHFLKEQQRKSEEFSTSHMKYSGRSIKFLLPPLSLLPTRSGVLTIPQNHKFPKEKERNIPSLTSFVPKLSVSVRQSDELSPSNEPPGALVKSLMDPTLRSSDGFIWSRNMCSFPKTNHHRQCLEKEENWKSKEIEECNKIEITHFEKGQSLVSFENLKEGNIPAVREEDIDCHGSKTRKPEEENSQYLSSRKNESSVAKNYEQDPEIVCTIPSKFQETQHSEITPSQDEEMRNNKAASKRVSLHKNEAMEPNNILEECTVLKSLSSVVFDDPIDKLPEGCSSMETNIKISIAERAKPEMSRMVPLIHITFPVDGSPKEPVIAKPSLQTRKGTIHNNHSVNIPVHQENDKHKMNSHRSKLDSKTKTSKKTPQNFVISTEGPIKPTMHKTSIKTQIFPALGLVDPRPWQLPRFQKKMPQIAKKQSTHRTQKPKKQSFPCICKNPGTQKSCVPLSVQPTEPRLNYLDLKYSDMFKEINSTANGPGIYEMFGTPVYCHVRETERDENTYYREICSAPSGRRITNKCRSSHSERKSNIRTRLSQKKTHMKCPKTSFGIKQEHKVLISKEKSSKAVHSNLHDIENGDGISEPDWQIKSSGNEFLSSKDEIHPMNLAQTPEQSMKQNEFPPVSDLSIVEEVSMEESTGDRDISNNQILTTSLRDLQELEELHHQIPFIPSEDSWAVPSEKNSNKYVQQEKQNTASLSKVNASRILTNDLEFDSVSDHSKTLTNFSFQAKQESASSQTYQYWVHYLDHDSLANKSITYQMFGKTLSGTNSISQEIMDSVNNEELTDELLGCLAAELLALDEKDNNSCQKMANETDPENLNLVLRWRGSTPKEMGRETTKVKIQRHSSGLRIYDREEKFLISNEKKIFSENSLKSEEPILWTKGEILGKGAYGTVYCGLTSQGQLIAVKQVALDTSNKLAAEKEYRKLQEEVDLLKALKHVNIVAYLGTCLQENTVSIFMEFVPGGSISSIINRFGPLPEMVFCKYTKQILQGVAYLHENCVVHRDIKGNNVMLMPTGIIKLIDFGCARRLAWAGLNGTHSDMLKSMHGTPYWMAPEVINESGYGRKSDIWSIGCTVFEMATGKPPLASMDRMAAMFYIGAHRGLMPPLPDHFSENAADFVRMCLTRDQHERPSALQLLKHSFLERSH

[33] = target: 5-hydroxytryptamine receptor 2B (Homo sapiens) (UniProt P41595); conditions: Compound concentration 10.0 uM
[34] = target: Sodium-dependent serotonin transporter (Homo sapiens) (UniProt P31645); conditions: Compound concentration 10.0 uM
[35] = target: T1, Muscarinic acetylcholine receptor M5 (Homo sapiens) (UniProt P08912); conditions: Compound concentration 10.0 uM
T1 sequence (whole entry): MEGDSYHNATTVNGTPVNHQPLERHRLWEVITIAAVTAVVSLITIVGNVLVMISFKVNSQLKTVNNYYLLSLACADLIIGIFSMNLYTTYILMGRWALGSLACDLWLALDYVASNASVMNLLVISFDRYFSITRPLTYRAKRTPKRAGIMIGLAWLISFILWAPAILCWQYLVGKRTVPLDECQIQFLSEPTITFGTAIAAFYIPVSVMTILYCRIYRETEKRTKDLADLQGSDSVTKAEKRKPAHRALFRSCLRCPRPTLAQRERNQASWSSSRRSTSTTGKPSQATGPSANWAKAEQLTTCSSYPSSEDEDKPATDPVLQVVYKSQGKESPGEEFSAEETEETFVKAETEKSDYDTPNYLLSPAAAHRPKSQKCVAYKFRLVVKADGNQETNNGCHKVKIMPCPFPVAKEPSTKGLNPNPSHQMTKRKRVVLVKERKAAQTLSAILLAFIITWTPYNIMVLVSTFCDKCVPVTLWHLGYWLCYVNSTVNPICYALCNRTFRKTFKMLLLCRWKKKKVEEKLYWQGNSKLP

[36] = target: GABA-A receptor; anion channel (Rattus norvegicus) (UniProt O09028+P15431+P18506+P18508+P19969+P20236+P23574+P23576+P28471+P28473+P30191+P62813+P63079+P63138+Q91ZM7+Q9ES14); conditions: Compound concentration 10.0 uM

Sequence of Atypical kinase COQ8A, mitochondrial (Homo sapiens) (Q8NI60 163-647 limits assumed): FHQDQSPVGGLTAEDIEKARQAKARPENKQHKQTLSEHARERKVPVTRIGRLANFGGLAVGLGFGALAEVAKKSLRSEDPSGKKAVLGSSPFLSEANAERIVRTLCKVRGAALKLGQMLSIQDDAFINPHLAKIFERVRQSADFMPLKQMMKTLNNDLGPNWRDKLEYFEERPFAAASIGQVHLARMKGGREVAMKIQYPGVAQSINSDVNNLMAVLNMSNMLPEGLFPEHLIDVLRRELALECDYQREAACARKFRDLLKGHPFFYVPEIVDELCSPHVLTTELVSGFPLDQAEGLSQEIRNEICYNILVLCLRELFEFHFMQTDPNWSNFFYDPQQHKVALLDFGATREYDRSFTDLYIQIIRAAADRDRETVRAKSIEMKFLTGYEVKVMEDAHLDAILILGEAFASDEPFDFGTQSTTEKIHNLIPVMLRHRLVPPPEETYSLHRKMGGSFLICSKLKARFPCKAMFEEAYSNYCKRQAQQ

CN(C)CC#Cc1ccc(OCCCc2sc(N3CCc4cccc(C(=O)Nc5nc6ccccc6s5)c4C3)nc2C(=O)O)c(F)c1 [A-1155463]
inactive: residual activity [1] 51% | residual activity [2] 100% | residual activity [3] 100% | residual activity [4] 69% | residual activity [5] 97% | residual activity [6] 72% | residual activity [7] 77% | residual activity [8] 86% | residual activity [9] 100% | residual activity [10] 90% | residual activity [11] 99% | residual activity [12] 93% | residual activity [13] 100% | residual activity [14] 83% | residual activity [15] 92% | residual activity [16] 81% | residual activity [17] 100% | residual activity [18] 87% | residual activity [19] 100% | residual activity [20] 89% | residual activity [21] 100% | residual activity [22] 95% | residual activity [23] 100% | residual activity [24] 100% | residual activity [25] 100% | residual activity [26] 98% | residual activity [27] 93% | residual activity [28] 100% | residual activity [29] 100% | residual activity [30] 100% | residual activity [31] 100% | residual activity [32] 95% | inhibition [33] 5.67% | inhibition [34] 16.4% | inhibition [35] 12.6% | inhibition [36] 36.8%
